Test results published in patent US10874743B2, “IRAK degraders and uses thereof” (Kymera Therapeutics, Inc., priority 2017, dated 2020).

Target: T1, IRAK4 (Homo sapiens, UniProt Q9NWZ3)
T1 sequence (Q9NWZ3 1-460): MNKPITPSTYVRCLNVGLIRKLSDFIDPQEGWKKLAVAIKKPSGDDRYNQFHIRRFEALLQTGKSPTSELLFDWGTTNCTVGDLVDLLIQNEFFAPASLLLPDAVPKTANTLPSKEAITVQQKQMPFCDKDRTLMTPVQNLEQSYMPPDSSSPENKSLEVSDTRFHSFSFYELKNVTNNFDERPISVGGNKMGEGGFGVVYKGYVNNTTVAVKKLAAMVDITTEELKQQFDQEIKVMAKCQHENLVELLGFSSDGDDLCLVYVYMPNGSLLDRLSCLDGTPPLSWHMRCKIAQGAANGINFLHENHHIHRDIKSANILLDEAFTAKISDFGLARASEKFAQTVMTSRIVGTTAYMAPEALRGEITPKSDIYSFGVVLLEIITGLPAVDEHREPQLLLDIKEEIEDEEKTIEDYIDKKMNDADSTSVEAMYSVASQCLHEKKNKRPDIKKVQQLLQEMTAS
Assay: OCI-LY-10 MSD assay for IRAK4 DC50
Assay type: cell-based
Parameters: endogenous in cells; host or cells: OCI-LY10
Conditions: OCI-LY10 cells, 4 hr incubation, concentration required to degrade 50% of protein
Method: A MSD assay was run to determine the concentration of compound required to degrade 50% of protein (DC50).
Day 1 • Compounds were reconstituted to 10 mM in stock solutions. The stock solutions were diluted to 5 mM and 45 μL of each dilution was transferred to a 384 pp-plate. A 3 fold, 8-point serial dilution was performed by transferring 15 μL of compound into 30 μL DMSO using Janus. • 20 nL of each compounds were added into each well of a 96-well plate (Corning3799). • OCI-Ly10 cells were seeded into the 96-well plate at 3.0*10e^5 cells/100 μL/well. • The cell plate was shaken at 720 rpm for 5 min and incubated for 4 hr. • The 100 μL of cells were transferred into the 96-PCR plate and spun down at high speed for 5 mins. • The supernatant was discarded and 100 μL of RIPA lysis buffer with proteinase inhibitors was added per well. The plate was then sealed and shaken at 600 rpm and 4° C. for about 20 min. • The plate was then spun down at high speed (about 3200 g) for 30 min and then frozen in a −80° C. fridge. • A bare MSD plate (L15XA-3) was coated with 2 μg/mL of capture antibody (mouse Anti-IRAK4 antibody [2H9], ab119942) in PBS to 40 μL/well and incubated overnight at 4° C.
Day 2 • The MSD coated plate was washed 3× (150 μL/well) with 1×TBST (CST #9997S). • The MSD plate was then blocked with 150 μL of blocking buffer [3% Blocker A (MSD, R93BA-4) in TBST]/well and shaken for 1 hr at R^† and 600 rpm. • The MSD plate was washed 3× (150 μL/well) with 1×TBST. The sample RIPA lysates were then added to the MSD plate (50 μL/well) and shaken for 1 hr at R^† and 600 rpm. • The MSD plate was washed 3× (150 μL/well) with 1×TBST and the primary detection antibody (Rabbit Anti-IRAK4 antibody [Y279], ab32511) was added to a final concentration of 1 μg/ml with 25 μL/well. The plate was then shaken for 1 hr at RT and 600 rpm. • The MSD plate was washed 3× (150 μL/well) with 1×TBST and the secondary detection antibody, SULFO-TAG anti-species antibody (Anti Rabbit Antibody (R32AB-5) MSD, R32AB-1) was added to a volume of 25 μL/well at a final concentration of 1 jag/ml. The plate was then shaken for 1 hr at RT and 600 rpm. • The MSD plate was then washed 3× (150 μL/well) with 1×TBST. • lx MSD reading buffer was then added (150 μL/well) and the plate was diluted with 4× water. (MSD, R92TC-2) • The MSD instrument was then read.
Data Analysis • The remaining activity was calculated following the formula below:
Calculate • The DC50 was calculated by fitting the Curve using Xlfit (v5.3.1.3), equation 201: Y=Bottom+(Top−Bottom)/(1+10^((Log IC50−X)*HillSlope))
OCI-LY-10 DC50 results. The letter codes for IRAK4 DC50 indicate the concentration of compound required to degrade 50% of protein: A (<0.05 μM), B (0.05-0.1 μM), C (0.1-0.5 μM), D (0.5-1.0 μM), and E (>1.0 μM).

Question: Which DC50 does the source give for `NC(=O)c1nn(-c2ccc(CNCCOCCOCCN3CCN(c4cccc5c4C(=O)N(C4CCC(=O)NC4=O)C5=O)CC3)cc2)cc1NC(=O)c1coc(-c2ccnc(NCC3CC3)c2)n1` (stereo not shown) [I-396] here?
Answer: The DC50 was 50 to 100 nM.

Question: Which DC50 does the source give for `NC(=O)c1nn(-c2ccc(CNCCCOCCCOCCCNc3cccc4c3C(=O)N(C3CCC(=O)NC3=O)C4=O)cc2)cc1NC(=O)c1coc(-c2ccnc(NCC3CC3)c2)n1` (stereo not shown) [I-398] here?
Answer: Its DC50 is 100 to 500 nM.

Question: `NC(=O)c1nn(-c2ccc(CNCCCOCCCNc3cccc4c3C(=O)N(C3CCC(=O)NC3=O)C4=O)cc2)cc1NC(=O)c1coc(-c2ccnc(NCC3CC3)c2)n1` (stereo not shown) [I-399] was tested. Which DC50 did it give?
Answer: The DC50 was less than 50 nM.

Question: `CNC(=O)c1nn(-c2ccc(CNCCOCCOCCNc3cccc4c3C(=O)N(C3CCC(=O)NC3=O)C4=O)cc2)cc1NC(=O)c1coc(-c2ccnc(NCC(F)(F)F)c2)n1` (stereo not shown) [I-400] was tested. Which DC50 did it give?
Answer: The DC50 was less than 50 nM.

Question: `CC(NCCOCCOCCCc1cccc2c1n(C)c(=O)n2C1CCC(=O)NC1=O)c1ccc(-n2cc(NC(=O)c3coc(-c4ccnc(NCC5CC5)c4)n3)c(C(F)F)n2)cc1` (stereo not shown) [I-401] was tested. Which DC50 did it give?
Answer: Its DC50 is less than 50 nM.

Question: `O=C1CCC(N2C(=O)c3cccc(NCCOCCOCCNCc4ccc(-n5cc(NC(=O)c6coc(-c7ccnc(NCC(F)(F)F)c7)n6)c(CCCO)n5)cc4)c3C2=O)C(=O)N1` (stereo not shown) [I-402] was tested. Which DC50 did it give?
Answer: The DC50 was greater than 1000 nM.

Question: For `Cn1c(=O)n(C2CCC(=O)NC2=O)c2cccc(CCCOCCOCCNC3(c4ccc(-n5cc(NC(=O)c6coc(-c7ccnc(NCC8CC8)c7)n6)c(C(F)F)n5)cc4)CC3)c21` (stereo not shown) [I-403], which DC50 is on record?
Answer: The DC50 was 50 to 100 nM.

Question: `Cn1c(=O)n(C2CCC(=O)NC2=O)c2cccc(CCCOCCCNCc3ccc(-n4cc(NC(=O)c5coc(-c6ccnc(NCC7CC7)c6)n5)c(C(F)F)n4)cc3)c21` (stereo not shown) [I-404] was tested. Which DC50 did it give?
Answer: Its DC50 is less than 50 nM.

Question: `Cn1c(=O)n(C2CCC(=O)NC2=O)c2ccc(CCCOCCCNCc3ccc(-n4cc(NC(=O)c5coc(-c6ccnc(NCC7CC7)c6)n5)c(C(F)F)n4)cc3)cc21` (stereo not shown) [I-405] was tested. Which DC50 did it give?
Answer: The DC50 was less than 50 nM.

Question: For `Cn1c(=O)n(C2CCC(=O)NC2=O)c2cccc(CCCOCCCOCCCNCc3ccc(-n4cc(NC(=O)c5coc(-c6ccnc(NCC7CC7)c6)n5)c(C(F)F)n4)cc3)c21` (stereo not shown) [I-406], which DC50 is on record?
Answer: The DC50 was less than 50 nM.

Question: With `Cn1c(=O)n(C2CCC(=O)NC2=O)c2ccc(CCCOCCCOCCCNCc3ccc(-n4cc(NC(=O)c5coc(-c6ccnc(NCC7CC7)c6)n5)c(C(F)F)n4)cc3)cc21` (stereo not shown) [I-407] as the compound, how does the DC50 read?
Answer: Its DC50 is less than 50 nM.

Question: `Cn1cc(NC(=O)c2coc(-c3ccnc(NCC(F)(F)F)c3)n2)c(CNCCOCCOCCOCCNc2cccc3c2C(=O)N(C2CCC(=O)NC2=O)C3=O)n1` (stereo not shown) [I-408] was tested. Which DC50 did it give?
Answer: Its DC50 is greater than 1000 nM.

Question: `Cn1c(=O)n(C2CCC(=O)NC2=O)c2ccc(CCCCOCCCCNCc3ccc(-n4cc(NC(=O)c5coc(-c6ccnc(NCC7CC7)c6)n5)c(C(F)F)n4)cc3)cc21` (stereo not shown) [I-411, 2-[2-(cyclopropylmethylamino)-4-pyridyl]-N-[3-(difluoromethyl)-1-[4-[[4-[4-[1-(2,6-dioxo-3-piperidyl)-3-methyl-2-oxo-benzimidazol-5-yl]butoxy]butylamino]methyl]phenyl]pyrazol-4-yl]oxazole-4-carboxamide] was tested. Which DC50 did it give?
Answer: The DC50 was less than 50 nM.

Question: With `Cn1cc(NC(=O)c2coc(-c3ccnc(NCC(F)(F)F)c3)n2)c(CNCCCOCCCOCCCNc2cccc3c2C(=O)N(C2CCC(=O)NC2=O)C3=O)n1` (stereo not shown) [I-412] as the compound, how does the DC50 read?
Answer: Its DC50 is greater than 1000 nM.

Question: With `Cc1ncsc1-c1ccc(CNC(=O)[C@@H]2C[C@@H](O)CN2C(=O)[C@@H](NCCOCCOCCOCCNCc2nn(C)cc2NC(=O)c2coc(-c3ccnc(NCC(F)(F)F)c3)n2)C(C)(C)C)cc1` [I-413] as the compound, how does the DC50 read?
Answer: The DC50 was greater than 1000 nM.

Question: Which DC50 does the source give for `Cc1ncsc1-c1ccc(CNC(=O)[C@@H]2C[C@@H](O)CN2C(=O)[C@@H](NC(=O)COCCOCCOCCNCc2ccc(-n3cc(NC(=O)c4coc(-c5ccnc(NCC(F)(F)F)c5)n4)c(C(N)=O)n3)cc2)C(C)(C)C)cc1` [I-414] here?
Answer: The DC50 was 100 to 500 nM.

Question: Which DC50 does the source give for `Cc1ncsc1-c1ccc(CNC(=O)[C@@H]2C[C@@H](O)CN2C(=O)[C@@H](NCCOCCOCCOCCNCc2ccc(-n3cc(NC(=O)c4coc(-c5ccnc(NCC(F)(F)F)c5)n4)c(C(N)=O)n3)cc2)C(C)(C)C)cc1` [I-415] here?
Answer: Its DC50 is greater than 1000 nM.

Question: Which DC50 does the source give for `COCC(=O)N[C@H](C(=O)N1Cc2cc(OCCOCCOCCOCCOCCOCCNCc3ccc(-n4cc(NC(=O)c5coc(-c6ccnc(NCC7CC7)c6)n5)c(C(F)F)n4)cc3)ccc2CC1C(=O)N[C@@H]1CCCc2ccccc21)C(C)(C)C` (stereo partly shown) [I-416] here?
Answer: Its DC50 is greater than 1000 nM.

Question: `COCC(=O)N[C@H](C(=O)N1Cc2cc(OCCOCCOCCOCCNCc3ccc(-n4cc(NC(=O)c5coc(-c6ccnc(NCC7CC7)c6)n5)c(C(F)F)n4)cc3)ccc2CC1C(=O)N[C@@H]1CCCc2ccccc21)C(C)(C)C` (stereo partly shown) [I-417] was tested. Which DC50 did it give?
Answer: Its DC50 is greater than 1000 nM.

Question: `Cn1c(=O)n(C2CCC(=O)NC2=O)c2cccc(CCCOCC(C)(C)COCCCNCc3ccc(-n4cc(NC(=O)c5coc(-c6ccnc(NCC7CC7)c6)n5)c(C(F)F)n4)cc3)c21` (stereo not shown) [I-419] was tested. Which DC50 did it give?
Answer: Its DC50 is 100 to 500 nM.

Question: How did the DC50 turn out when `Cn1cc(NC(=O)c2coc(-c3ccnc(NCC(F)(F)F)c3)n2)c(CNCCCOCC(C)(C)COCCCc2cccc3c2n(C)c(=O)n3C2CCC(=O)NC2=O)n1` (stereo not shown) [I-420] was run?
Answer: The DC50 was greater than 1000 nM.

Question: For `Cn1c(=O)n(C2CCC(=O)NC2=O)c2ccc(CCCOCC(C)(C)COCCCNCc3ccc(-n4cc(NC(=O)c5coc(-c6ccnc(NCC7CC7)c6)n5)c(C(F)F)n4)cc3)cc21` (stereo not shown) [I-421], which DC50 is on record?
Answer: Its DC50 is 100 to 500 nM.

Question: For `Cn1c(=O)n(C2CCC(=O)NC2=O)c2cccc(CCCOCCOCCNCc3ccc(-n4cc(NC(=O)c5cocn5)c(C(N)=O)n4)cc3)c21` (stereo not shown) [I-422], which DC50 is on record?
Answer: Its DC50 is greater than 1000 nM.

Question: `Cn1c(=O)n(C2CCC(=O)NC2=O)c2cccc(CCCNCc3ccc(-n4cc(NC(=O)c5coc(-c6ccnc(NCC7CC7)c6)n5)c(C(F)F)n4)cc3)c21` (stereo not shown) [I-423] was tested. Which DC50 did it give?
Answer: The DC50 was greater than 1000 nM.

Question: For `O=C1CCC(N2C(=O)c3cccc(NCCOCCOCCNC(=O)c4ccc(-n5cc(NC(=O)c6coc(-c7ccnc(NCC(F)(F)F)c7)n6)c(N6CCN(CCO)C6=O)n5)cc4)c3C2=O)C(=O)N1` (stereo not shown) [I-428], which DC50 is on record?
Answer: Its DC50 is less than 50 nM.

Question: Which DC50 does the source give for `CC1(C)CCN(c2nn(-c3ccc(C(=O)NCCOCCOCCNc4cccc5c4C(=O)N(C4CCC(=O)NC4=O)C5=O)cc3)cc2NC(=O)c2coc(-c3ccnc(NCC(F)(F)F)c3)n2)C1=O` (stereo not shown) [I-429, N-[3-(3,3-dimethyl-2-oxo-pyrrolidin-1-yl)-1-[4-[2-[2-[2-[[2-(2,6-dioxo-3-piperidyl)-1,3-dioxo-isoindolin-4-yl]amino]ethoxy]ethoxy]ethyl]carbamoyl]phenyl]pyrazol-4-yl-2-[2-(2,2,2-trifluoroethylamino)-4-pyridyl]oxazole-4-carboxamide] here?
Answer: The DC50 was greater than 1000 nM.

Question: With `Cn1cc(NC(=O)c2coc(-c3cccnc3NCCOCCOCCOCCNc3cccc4c3C(=O)N(C3CCC(=O)NC3=O)C4=O)n2)c(C(F)F)n1` (stereo not shown) [I-432, N-[3-(difluoromethyl)-1-methyl-pyrazol-4-yl]-2-[2-[2-[2-[2-[2-[[2-(2,6-dioxo-3-piperidyl)-1,3-dioxo-isoindolin-4-yl]amino]ethoxy]ethoxy]ethoxy]ethylamino]-3-pyridyl]oxazole-4-carboxamide] as the compound, how does the DC50 read?
Answer: The DC50 was greater than 1000 nM.

Question: For `Cn1c(=O)n(C2CCC(=O)NC2=O)c2ccc(CCCOCCCN3CCN(C4CCC(Nc5ncnn6ccc(C7CCOCC7)c56)CC4)CC3)cc21` (stereo not shown) [I-436, 3-[3-Methyl-2-oxo-5-[3-[3-[4-[4-[(5-tetrahydropyran-4-ylpyrrolo[2,1-f][1,2,4]triazin-4-yl)amino]cyclohexyl]piperazin-1-yl]propoxy]propyl]benzimidazol-1-yl]piperidine-2,6-dione], which DC50 is on record?
Answer: The DC50 was greater than 1000 nM.
